Data: patent US20240166593A1, “LIPIDS SUITABLE FOR NUCLEIC ACID DELIVERY” (RAMOT AT TEL-AVIV UNIVERSITY LTD., priority 2021, published 2024)
Several values for one entry are separate records, joined by “and”; a condition that tells them apart may be missing. Identical values can stand only once.

Assays:
tdTomato expression = assay: Biodistribution of DSL1-2 LNPs compared to Dlin-MC3-DMA LNPs (IVIS of spleen and liver); assay type: in vivo, Ai9 mice; conditions: mCRE-LNPs IV 0.5 mg/kg, 72 hr post administration
Description: Ai9 mice that express robust tdTomato fluorescence following cre-mediated recombination were injected intravenously with either Dlin-MC3-DMA or DSL1-2 mCRE-LNPs at 0.5 mg/kg dose. Mice were sacrificed 72 hr post administration followed by spleen and liver isolation and analyzed by IVIS for tdTomato expression.

[1] = Physico-chemical characterization of LNPs made of different ionizable lipids (DLS, zeta potential); assay type: physicochemical
Description: Various LNPs comprising different ionizable lipid were prepared by using microfluidic micro mixture (Precision NanoSystems, Vancouver, BC) device. Briefly, one volume of lipid mixtures (ionizable lipid, DSPC, Cholesterol and DMG-PEG at 30:18:49.5:2.5 mole ratios) in ethanol and three volumes of mRNA containing acetate buffer solutions were mixed through the micromixer at a combined flow rate of 12 mL/min. The resultant mixture was dialyzed against PBS (pH 7.4) for 16 hours to remove ethanol.
The prepared LNPs comprising different ionizable lipids were characterized using transmission electron microscopy (TEM) analysis (FIGS. 10A-10G), dynamic light scattering (DLS) and zeta potential measurements. Table 1 represents the measured hydrodynamic diameter (Z-ave; d.nm), polydispersity index (PDI) and zeta potential (mV) of various LNPs. The resultant LNPs were spherical and uniformly distributed with a hydrodynamic diameter size of ˜50-260 nm, depending on the ionizable lipid used. Additionally, LNP surface potentials were negative.
In addition, DSL1-3 LNPs comprising different amounts of PEG (1.5 mol % or 2.5 mol %) were compared for bio-distribution. Mice treated and sacrificed; organs prepared for luciferase expression analysis as detailed above. […] Next, as shown in FIGS. 11M-11P, mRNA-LNPs composed of DSL1-4, 1-5, 2-2 or 2-50 lipids were compared to DSPC or DOPE as co-lipids. […] Tables 2-5 detail the physio-chemical properties of LNPs made of either DOPE or DSPC (the measured hydrodynamic diameter (Z-ave; d.nm), polydispersity index (PDI)).

luciferase expression [2] = assay: In-vivo delivery of mRNA encoding luciferase using LNPs (IVIS of organs); design: species or system Mice; conditions: for bio-distribution of LNPs (luciferase expression by IVIS): mLUC-LNPs IV 0.5 mg/kg, 7 hr post administration, lung, liver, spleen, kidney; for luciferase activity of LNPs with DOPE as co-lipid compared to DSPC containing LNPs: mRNA-LNPs in mice; for bio-distribution on increasing ionizable lipid mole ratio (40% vs 30%): mRNA-LNPs IV
[3] = Stability of mRNA-LNPs stored at 2-8° C. (size, PDI); assay type: physicochemical
luciferase expression [4] = assay: Luciferase expression in mouse organs after storage of mRNA-LNPs (IVIS); assay type: in vivo, mice; conditions: mLuc LNPs stored 210 days at 2-8° C.
mice = assay: In vivo safety analysis of mRNA-LNPs (serum liver enzymes); conditions: mRNA-LNPs IV; serum after 2 hr and 24 hr; compared to untreated mice
Description: After 2 hr and 24 hr blood was collected and serum samples were analyzed for levels of the liver enzymes alkaline phosphatase (Alk Phos), serum glutamic-oxaloacetic transaminase (SGOT) or serum glutamic pyruvic transaminase (SGPT).
Safety is an important limitation for clinical development of LNPs. Therefore, mRNA-LNPs system made of DSL2-50 and DSL1-3 lipids were tested and evaluated for the toxicity in mice.

[5] = system: Luciferase and mCherry expression; assay: Delivery of two types of mRNA encapsulated in a single LNP (IVIS of livers); assay type: in vivo; conditions: mice livers; compared to SM102-LNPs
SARS-CoV-2 = conditions: IM day 0 and booster day 21, serum 3 weeks after booster; BALB/c and C57BL6 mice
Description: To evaluate the efficiency of our LNP system for vaccine delivery, mRNA against human Fc conjugated RBD (RBD-hFc mRNA) was chosen. LNPs encapsulated RBD-mRNA administered IM in to BALB/c mice (FIG. 19) and C57BL6 mice (FIG. 20) on day ‘0’ and a booster dose on day ‘21’. Serum was collected on day ‘21’ (pre boost) and 3 weeks after the booster dose (post boost) and analyzed for humoral response. […] The cellular response (SARS-CoV-2 specific T-cell response) was measured by ELISPOT assay for IFN-γ response.

[6] = system: CD11c positive splenic dendritic cells; assay: mCRE-LNPs in Ai9 mice, FACS for tdTomato expression; assay type: in vivo; conditions: mCRE-LNPs IV 0.5 mg/kg, 72 hr post administration
Description: (§1) Ai9 mice that express robust tdTomato fluorescence following cre-mediated recombination were injected intravenously with the various mCRE-LNPs at 0.5 mg/kg dose. Mice were sacrificed 72 hr post administration and peritoneal macrophages and spleenocytes were isolated and analyzed by FACS for tdTomato expression (FIGS. 13 and 14).

peritoneal macrophages = assay: as above; assay type: in vivo; conditions: mCRE-LNPs IV 0.5 mg/kg, 72 hr post administration
Description: as §1

[7] = mRNA LNPs: ionizable lipid, DSPC, Cholesterol, DMG-PEG 30:18:49.5:2.5 mole ratio

SMILES	PDI (polydispersity index) [1, 7]	Z-ave (hydrodynamic diameter) [1, 7] [nm·days]	Zeta (zeta potential) [1, 7] [mV]	bio-distribution of LNPs (luciferase expression by IVIS) (luciferase expression [2])	other results
CCCCC/C=C\C/C=C\CCCCCCCCC(CCCCCCCC/C=C\C/C=C\CCCCC)OC(=O)CCCN(C)C [Dlin-MC3-DMA]	–	–	–	–	organ of accumulation (tdTomato expression, IVIS) (tdTomato expression): accumulated in the liver
CCCCCCCCCCCCN(CCO)CCCCCCCCCC(=O)ON(CCCCCCCCCCCC)CCCCCCCCCCCC [DSL2-2]	0.23	50.8	−5.31	mostly taken-up by the liver	Z-ave (hydrodynamic diameter) ([1]; LNPs with DOPE as co-lipid): 72.5 nm·days and 88.5 nm·days; Z-ave (hydrodynamic diameter) ([1]; LNPs with DSPC as co-lipid): 50.8 nm·days and 80.3 nm·days; luciferase activity of LNPs with DOPE as co-lipid compared to DSPC containing LNPs (luciferase expression [2]; IVIS): enhanced luciferase activity observed in the liver
CCCCCCN(CCCCCC)OC(=O)CCCCCCCCCN(CCO)CCCCCCCCCC(=O)ON(CCCCCC)CCCCCC [DSL2-49]	0.07	63.9	−5.65	–	–
CCCCCCCCCCCCN(CCO)CCCCCCCCCC(=O)OCCOC(=O)CCCCCCCCCN(CCO)CCCCCCCCCCCC [DSL1-5]	–	–	–	preferentially taken up by spleen	bio-distribution on increasing ionizable lipid mole ratio (40% vs 30%) (luciferase expression [2]): altering the bio-distribution from the spleen to the liver
CCCCC/C=C\C/C=C\CCCCCCCCN(CCO)CCCCCCCCCCOC(=O)CCCCCCCCCN(CCO)CCCCCCCCCC(=O)OCCCCCCCCCCN(CCO)CCCCCCCC/C=C\C/C=C\CCCCC [DSL3c-1]	0.45	261.9	−2.68	distributed to both liver and spleen	–
CCCCCCCCCCCCN(CCCCCCCCCCCC)CC(=O)ON(CCCCCCCCCCCC)CCCCCCCCCCCC [DSL4-2]	0.64	72.4	−5.00	no effect	–
CCCCCCN(CCCCCC)CCOC(=O)CCCCCCCCCN(CCO)CCCCCCCCCC(=O)OCCN(CCCCCC)CCCCCC [DSL2-50]	0.04	80.3	−2.68	–	bio-distribution on increasing ionizable lipid mole ratio (40% vs 30%) (luciferase expression [2]): no significant changes in bio-distribution; luciferase activity of LNPs with DOPE as co-lipid compared to DSPC containing LNPs (luciferase expression [2]; IVIS): enhanced luciferase activity observed in the liver; LNP bio-distribution, intramuscular (IM) administration (luciferase expression [2]; mRNA-LNPs, IVIS): also reaching the liver apart from the injection site of the muscle; LNP bio-distribution, intravenous (IV) administration (luciferase expression [2]; mRNA-LNPs, IVIS): distributing to the liver; time over which LNPs are stable ([3]; mCherry LNPs stored at 2-8° C.): ≥ 3 months; size of the LNPs compared to freshly prepared LNPs ([3]; mCherry LNPs, after 3 months at 2-8° C.): slightly increased; time over which LNPs are stable ([3]; mLuc LNPs stored at 2-8° C.): ≥ 7 months; size and distribution of the LNPs compared to freshly prepared LNPs ([3]; mLuc LNPs, 210 days (7 months) at 2-8° C.): did not change; luciferase activity in the liver after storage (luciferase expression [4]): retain its luciferase activity in the liver; toxicity (levels of liver enzymes Alk Phos, SGOT, SGPT) (mice): not toxic; amount of Luciferase and mCherry expression [5]: high; post boost antibody response against SARS-CoV-2 (SARS-CoV-2): robust antibody response
CCCCC/C=C\C/C=C\CCCCCCCCN(CCO)CCCCCCCCCC(=O)ON(CCCCCCCCCCCC)CCCCCCCCCCCC [DSL2-1]	0.24	49.2	−6.97	mostly taken-up by the liver	–
CCCCC/C=C\C/C=C\CCCCCCCCN(CCO)CCCCCCCCCCOC(=O)CCCCCCCCCN(CCO)CCCCCCCCCCCC [DSL1-2]	0.17	197.2	−7.52	–	uptake by CD11c positive splenic dendritic cells (tdTomato expression) [6]: ~12%; peritoneal macrophages expressing tdTomato (peritoneal macrophages): about 90%
CCCCC/C=C\C/C=C\CCCCCCCCN(CCO)CCCCCCCCCCOC(=O)CCCCCCCCCN(CCO)CCCCCCCC/C=C\C/C=C\CCCCC [DSL1-1]	0.23	187.3	−6.37	distributed to both liver and spleen	uptake by CD11c positive splenic dendritic cells (tdTomato expression) [6]: ~3%; peritoneal macrophages expressing tdTomato (peritoneal macrophages): ~60%
CCCCC/C=C\C/C=C\CCCCCCCCN(CCO)CCCCCCCCCCCOC(=O)CCCCCCCCCN(O)CCCCCCCCCCCC [DSL1-3]	0.17	164.8	−3.90	preferentially taken up by spleen	LNP distribution and expression, 1.5 mol % vs 2.5 mol % PEG (luciferase expression [2]; mLUC-LNPs IV, two formulations compared): no significant different observed; uptake by CD11c positive splenic dendritic cells (tdTomato expression) [6]: ~18%; peritoneal macrophages expressing tdTomato (peritoneal macrophages): ~20%; toxicity (levels of liver enzymes Alk Phos, SGOT, SGPT) (mice): not toxic
CCCCCCCCCCCCN(CCO)CCCCCCCCCCOC(=O)CCCCCCCCCN(CCO)CCCCCCCCCCCC [DSL1-4]	0.13	188.7	−1.43	preferentially taken up by spleen	PDI ([1]; LNPs with DOPE as co-lipid): 0.1; Z-ave (hydrodynamic diameter) ([1]; LNPs with DOPE as co-lipid): 92.3 nm·days; PDI ([1]; LNPs with DSPC as co-lipid): 0.15; Z-ave (hydrodynamic diameter) ([1]; LNPs with DSPC as co-lipid): 190.9 nm·days; luciferase activity of LNPs with DOPE as co-lipid compared to DSPC containing LNPs (luciferase expression [2]; IVIS): loses its luciferase activity
